Like-named read-outs stand apart in the source and are kept apart here.
What was measured:
[1] = Cytotoxicity (metabolic activity), MEL B16; format: cell-based, Rodent-mouse; conditions: mouse, MEL B16 cells, highest concentration assessed 75 µM
Description: (§1) A non-radioactive cytotoxicity assay (CytoTox 96 Non-Radioactive Cytotoxicity Assay, Promega) was employed to determine the metabolic activity of cell after exposure to the compound. In a 96-well plate format, 10,000 cells per well were incubated at 37°C for 24 hours in four replicates per concentration tested in the presence of compound in two-fold dilutions starting at 75 µM. Substrate was then added and color development measured at 490 nm using a BioRad plate reader. Values were calculated according to the formula [% toxicity = 100−((experimental-background)/(maximum(vehicle treated)-background)*100)]. Values were plotted in dose-response curves and, if applicable, CC50 concentrations calculated.

[2] = Cytotoxicity (metabolic activity), Vero-Slam cells; format: cell-based; conditions: African green monkey, highest concentration assessed 75 µM, read-out: CC50, Toxicity, Metabolic activity
Description: as §1

MeV (Alaska) = experiment: microbe, parasite or virus in culture; format: cell-based, measles virus isolate MVi/Alaska.USA/16.00; conditions: Measles morbillivirus
HPIV3 = experiment: microbe, parasite or virus in culture; format: cell-based, human parainfluenzavirus type 3; conditions: Human respirovirus 3; titered through plaque assaying
Influenza A/WSN [3] = experiment: Immunodetection of virus-encoded influenza A/WSN M2; format: cell-based; conditions: 100 nM
Description: Aliquots with equal total concentrations of cleared lysates (20,000×g; 10 min; 4°C) were mixed with 2x-urea buffer (200 mM Tris, pH 6.8; 8 M urea; 5% sodium dodecyl sulfate (SDS); 0.1 mM EDTA; 0.03% bromphenol blue; 1.5% dithiothreitol) and denatured for 25 min at 50°C. Samples were then fractionated on 10% SDS-polyacrylamide gels, blotted to polyvinylidene difluoride (PVDF) membranes (Millipore) and subjected to enhanced chemiluminescence detection (Pierce) using specific antisera directed against phosphorylated or non-phosphorylated cdc2-cyclin B kinase (Cell Signaling Technology), GAPDH (Abcam), the cytosolic tail of the MeV F protein [81], or influenza A/WSN virus M2 (Thermo Scientific). Immunostained PVDF membranes were developed using a ChemiDoc XRS digital imaging system (Bio-Rad) and horseradish peroxidase conjugated anti-species IgG (mouse or rabbit) antibodies. For densitometry, signals were quantified using the QuantityOne software package (Bio-Rad).

vaccinia virus = format: cell-based; conditions: compared with activity against myxoviruses
[4] = Cytotoxicity (metabolic activity), MDCK; format: cell-based, Canine-dog; conditions: dog, MDCK cells, highest concentration assessed 75 µM
Description: as §1

in vitro = format: cell-based, Avian-chicken; conditions: chicken; DF-1; highest concentration assessed 75 µM; read-out: CC50, Metabolic Activity
Description: as §1

Influenza A/WSN [5] = experiment: Virus yield reduction assay, influenza A/WSN; format: cell-based, influenza A strain WSN (H1N1)
[6] = Cytotoxicity (metabolic activity), HeLa; format: cell-based; conditions: human, HeLa cells, highest concentration assessed 75 µM
Description: as §1

MeV-Alaska = experiment: In vitro virus adaptation (resistance induction); format: cell-based, measles virus; conditions: after 90 days of continued viral incubation
Description: Adaptations were carried out essentially as we have previously described. Briefly, Vero-SLAM cells were infected with MeV-Alaska at an MOI of […] and incubated in the presence of gradually increasing JMN3-003 concentrations starting at 0.5 µM. Equally infected cells treated with the virus polymerase targeted RdRp inhibitor AS-136A were examined in parallel. When cultures became over confluent, cells were reseeded for continued incubation in the presence of the same compound concentration as before. At detection of extensive cell-to-cell fusion, cell-associated viral particles were harvested, diluted 10-fold and used for parallel infections of fresh cell monolayers in the presence of compound at unchanged and doubled concentrations. Cultures treated with the highest compound concentrations in which virus-induced cytopathicity became detectable were used for further adaptation. The approach was terminated after 90 days of continued incubation or when virus-induced cytopathicity was readily detectable in the presence of 30 µM compound in accordance with previous results.

sindbis virus = format: cell-based; conditions: compared with activity against myxoviruses
RSV (Long) = experiment: microbe, parasite or virus in culture; format: cell-based, respiratory syncytial virus strain Long; conditions: human respiratory syncytial virus; titered through plaque assaying
[7] = Stability in human plasma; conditions: 120-minute incubation, 37°C
[8] = system: MeV H and F mediated cell-to-cell fusion; experiment: MeV glycoprotein-mediated cell-to-cell fusion assay; set-up: species or system measles virus; conditions: microscopic and luciferase reporter-based
Influenza A/WSN [9] = experiment: Quantitation of influenza A/WSN antigenome and released progeny genome copies; format: cell-based; conditions: MDCK cells, 24 hours

COc1ccc(-n2c(SC(C)C(=O)Nc3ccc(C)cc3Cl)nc3ccccc32)cc1 (stereo not drawn) [JMN3-003]
CC50 at 24 h [1]: > 75 µM
CC50 at 24 h [2]: > 75 µM
EC50 (MeV (Alaska); PBMC, hPBMC from a mixed pool of healthy donors, four-parameter non-linear regression, read-out: EC50, MeV-Alaska grown on human PBMCs): 0.09 ± 0.05 µM
EC50 (MeV (Alaska); read-out: EC50, MeV (Alaska)): 0.03 ± 0.02 µM
EC50 (MeV (Alaska); Vero-Slam, comparison curve of figure 2, read-out: EC50, MeV-Alaska grown on Vero-Slam cells): 0.04 ± 0.02 µM
EC50 (HPIV3): 0.08 ± 0.01 µM
expression of virus-encoded proteins, orthomyxovirus infection (Influenza A/WSN [3]): fully blocked
activity against vaccinia virus (vaccinia virus): to a lesser degree
CC50 at 24 h [4]: > 75 µM
CC50 at 24 h (in vitro): > 75 µM
EC50 (Influenza A/WSN [5]; Influenza A virus, WSN, HT-1080, host cell HT1080 (Human), read-out: EC50, Inhibition of Influenza A/WSN): 0.06 ± 0.002 µM
EC50 (Influenza A/WSN [5]; Influenza A virus, WSN, MDCK, read-out: EC50, Inhibition of Influenza A/WSN): 0.01 µM
EC50 (Influenza A/WSN [5]; Influenza A virus, WSN, NIH3T3, host cell NIH-3T3 (Rodent-mouse), read-out: EC50, Inhibition of Influenza A/WSN): > 10 µM
EC50 (Influenza A/WSN [5]; Influenza A virus, WSN, genome copy numbers of released progeny particles by TaqMan RT-PCR, read-out: EC50, Influenza A/WSN): 0.01 ± 0.008 µM
EC50 (Influenza A/WSN [5]; Influenza A virus, WSN, host cell BHK-21 (Rodent-Syrian hamster), read-out: EC50, Inhibition of Influenza A/WSN): 0.08 ± 0.01 µM
EC50 (Influenza A/WSN [5]; Influenza A virus, WSN, host cell CHO (Rodent-Chinese hamster), read-out: EC50, Inhibition of Influenza A/WSN): 0.07 ± 0.01 µM
EC50 (Influenza A/WSN [5]; Influenza A virus, WSN, host cell DF-1 (Avian-chicken), read-out: EC50, Inhibition of Influenza A/WSN): > 10 µM
EC50 (Influenza A/WSN [5]; Influenza A virus, WSN, host cell HeLa (Human), read-out: EC50, Inhibition of Influenza A/WSN): 0.02 ± 0.01 µM
EC50 (Influenza A/WSN [5]; host cell MEL B16 (Rodent-mouse), read-out: EC50, Inhibition of Influenza A/WSN): > 10 µM
CC50 at 24 h [6]: > 75 µM
change of the tolerated dose (MeV-Alaska): only marginal increases in the tolerated dose
activity against sindbis virus (sindbis virus): to a lesser degree
EC50 (RSV (Long)): 0.07 ± 0.01 µM
stability in human plasma [7]: virtually unaffected
MeV glycoprotein-mediated cell-to-cell fusion [8]: extensive membrane fusion indistinguishable from that seen in vehicle-treated controls
drop in relative viral antigenome levels (Influenza A/WSN [9]): > 100 fold
reduction in genome copies of released progeny virions (Influenza A/WSN [9]): > 10,000 fold

Source: article PMC3095640, “Potent Host-Directed Small-Molecule Inhibitors of Myxovirus RNA-Dependent RNA-Polymerases” (PLoS ONE, 2011)
